In PubChem BioAssay (NCI):
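Exposure lasted 48 hours, with cells grown in 96-well plates and compounds tested at five concentrations. The concentration for 50% growth inhibition is given as GI50. The concentration for full growth arrest is given as TGI.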

Assays:
Test in all cases: growth of human tumour cells (NCI), 48 h
[1] = tested on: PC-3 prostate
[2] = tested on: OVCAR-8 ovarian
[3] = tested on: UACC-257 melanoma
[4] = tested on: MCF7 breast
[5] = tested on: SK-MEL-5 melanoma
[6] = tested on: MOLT-4 leukemia
[7] = tested on: CCRF-CEM leukemia
[8] = tested on: NCI/ADR-RES ovarian
[9] = tested on: MDA-MB-231 breast
[10] = tested on: HCT-15 colon

| SMILES | GI50 [1] | TGI [1] | GI50 [2] | TGI [2] | GI50 [3] | TGI [3] | GI50 [4] | TGI [4] | GI50 [5] | TGI [5] | GI50 [6] | TGI [6] | GI50 [7] | TGI [7] | GI50 [8] | TGI [8] | GI50 [9] | TGI [9] | GI50 [10] | TGI [10] |
| --- | --- | --- | --- | --- | --- | --- | --- | --- | --- | --- | --- | --- | --- | --- | --- | --- | --- | --- | --- | --- |
| Cc1cc(-c2ccccc2)c(C)n1Cc1ccc(Cl)cc1 | 5.18 µM | > 100 µM | 5.95 µM | > 100 µM | 5.39 µM | 78.6 µM | 3.11 µM | > 100 µM | 4.23 µM | 66.8 µM | 4.84 µM | 91.9 µM | 3.46 µM | > 100 µM | 3.64 µM | 66.3 µM | 6.17 µM | 32.3 µM | 2.86 µM | > 100 µM |
| COc1ccc(N2CCN(CC(=O)N3CCN(c4nnc(-c5ccccc5)c(-c5ccccc5)n4)CC3)CC2)cc1 | 5.5 µM | > 100 µM | 35.8 µM | > 100 µM | 27.1 µM | > 90.6 µM | 4.44 µM | 34.2 µM | 2.32 µM | 6.63 µM | 4.79 µM | > 71 µM | 6.61 µM | > 100 µM | 8.68 µM | > 100 µM | 65.3 µM | > 100 µM | 6.07 µM | > 100 µM |
| COC(=O)c1[nH]nc(-c2ccccc2)c1N1CCCCC1 | 38.9 µM | > 100 µM | 44.2 µM | > 100 µM | 39.7 µM | > 100 µM | 29.5 µM | > 100 µM | 34 µM | > 100 µM | 62.6 µM | > 100 µM | 72.9 µM | > 100 µM | 22.8 µM | 58.5 µM | 31.2 µM | 65.9 µM | 36.2 µM | > 100 µM |
| COc1ccc(/C=C/c2nc(N3CCOCC3)c3cc(F)c(F)cc3n2)cc1OC | 2.66 µM | 33.9 µM | 4.57 µM | > 100 µM | 4.41 µM | > 100 µM | 2.54 µM | > 100 µM | 1.18 µM | 2.81 µM | 4.11 µM | > 100 µM | 4.7 µM | > 100 µM | 4.09 µM | > 100 µM | 6.56 µM | > 100 µM | 3 µM | > 100 µM |
| COc1cc(C(=O)/C=C/c2c(-c3ccc(F)cc3)nc3sccn23)cc(OC)c1OC | 3.57 µM | > 46.2 µM | 2.4 µM | > 21.4 µM | 14.1 µM | 33.7 µM | 1.9 µM | 7.88 µM | 1.28 µM | 2.81 µM | 2.16 µM | 6.35 µM | 2.68 µM | > 27.3 µM | 2.05 µM | 6.28 µM | 2.34 µM | > 29.8 µM | 2.87 µM | 13.1 µM |
| COc1cc(/C=C/C(=O)c2c(C)n([O-])c3cc(C)c(C)cc3[n+]2=O)cc(OC)c1OC | 14.2 µM | 38.5 µM | 23.6 µM | 71.8 µM | 16.7 µM | 48.8 µM | 9.62 µM | 25.1 µM | 13.9 µM | 34 µM | 6.77 µM | > 100 µM | 5.68 µM | > 100 µM | 23 µM | 56.6 µM | 17 µM | 44.7 µM | 10.3 µM | 25.6 µM |
| CC12C=CC(C)(O1)C1C2c2ccccc2S1(=O)=O (stereo not given) | 66.8 µM | > 100 µM | > 100 µM | > 100 µM | 41.7 µM | > 100 µM | 50.4 µM | > 100 µM | 38.7 µM | > 100 µM | 62.7 µM | > 100 µM | 28.2 µM | > 100 µM | > 100 µM | > 100 µM | 69.9 µM | > 100 µM | 38.4 µM | > 100 µM |
| COc1ccc(C(=O)Nc2ncc(Cc3ccc(F)cc3)s2)cc1 | 0.0513 µM | > 100 µM | 0.135 µM | > 100 µM | 7.75 µM | > 100 µM | 0.0385 µM | > 100 µM | 0.0422 µM | 2.26 µM | 0.0574 µM | > 100 µM | 0.0446 µM | > 100 µM | 0.0511 µM | > 100 µM | 0.2 µM | 76.6 µM | 0.0429 µM | > 100 µM |
| COc1ccc2nc(-c3ccccc3)cc(Nc3ccc(/C(C)=N/O)cc3)c2c1 | 6.36 µM | > 64.8 µM | 3.02 µM | > 27.5 µM | 2.88 µM | 7.78 µM | 3.35 µM | > 19.7 µM | 2.62 µM | 7.57 µM | 3.73 µM | > 100 µM | 3.48 µM | > 100 µM | 2.75 µM | > 24.6 µM | 0.733 µM | 2.07 µM | 13.9 µM | > 63.9 µM |
| Cn1c2ccccc2c2cc(-c3ccccc3)c3c(c21)C(=O)C=CC3=O | – | 34.8 µM | – | 78.3 µM | – | 50.9 µM | – | 24.7 µM | – | > 62.7 µM | – | 21.8 µM | – | > 48.5 µM | – | > 100 µM | – | 47.4 µM | – | 42.1 µM |
| Cc1cc(N(CCCNc2ccnc3cc(Cl)ccc23)Cc2cccs2)nc(Cl)n1 | 3.32 µM | 22.9 µM | 4.83 µM | 34.9 µM | 3.04 µM | 11.1 µM | 3.06 µM | 17.1 µM | 1.45 µM | 3.15 µM | 2.72 µM | 22.9 µM | 5.57 µM | > 100 µM | 2.64 µM | 28.5 µM | 3.36 µM | 17.3 µM | 2.45 µM | 12.8 µM |
| Cc1sc2nc(-c3ccccn3)c(/C=N/N=C(N)N)n2c1C | 10.2 µM | 28.6 µM | 6.65 µM | 68.1 µM | 10.7 µM | 27 µM | 6.54 µM | 34 µM | 3.58 µM | 8.13 µM | 10.2 µM | > 27.5 µM | 6.02 µM | 19 µM | > 21.9 µM | > 40 µM | 3.3 µM | 6.94 µM | 4.98 µM | 13.5 µM |
